According to PubChem BioAssay AID1963837 (Molecular Pharmacology Branch, DTP, NCI, 2024):
pIC50: −log10 of the molar value.

System: 843126-344-R-J1-PDC complex spheroid viability
Test: Anticancer human tumor 843126-344-R-J1-PDC patient-derived melanoma cell line growth inhibition [POLQ]
Conditions: for pIC50: curve of first compound; for viability, T/C: stronger effect = lower value
Procedure, shortened: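 Growth inhibition in 3D: complex spheroids (tumor PDC, HUVEC, MSC) treated with POLQ inhibitor combinations; where Cmax unknown, highest tested concentration 10 microM, except SN-38 at 1 microM.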

[1] = second compound 0.0316 µM, first compound 0.0316 µM
[2] = second compound 0.0316 µM, first compound 0.1 µM
[3] = second compound 0.1 µM, first compound 0.0316 µM
[4] = second compound 0.1 µM, first compound 0.1 µM
[5] = second compound 0.316 µM, first compound 0.0316 µM
[6] = second compound 0.316 µM, first compound 0.1 µM
[7] = second compound 1 µM, first compound 0.0316 µM
[8] = second compound 1 µM, first compound 0.1 µM
[9] = second compound 3.16 µM, first compound 0.0316 µM
[10] = second compound 3.16 µM, first compound 0.1 µM
[11] = second compound 10 µM, first compound 0.0316 µM
[12] = second compound 10 µM, first compound 0.1 µM
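Throughout, for viability, T/C: spheroids exposed to drugs for seven days before readout.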

CC1COCCN1c1cc(-c2ccnn2C)c2ccnc(-c3ccn[nH]3)c2n1 (centres undefined) + Cc1cccc(N(C)C(=O)C2C(O)CCN2c2nc(C)cc(C(F)(F)F)c2C#N)c1
pIC50 (second compound 0.0316 µM): 5.71
pIC50 (second compound 0.1 µM): 5.89
pIC50 (second compound 0.316 µM): 5.68
pIC50 (second compound 1 µM): 5.80
pIC50 (second compound 3.16 µM): 5.78
pIC50 (second compound 10 µM): 5.73
viability, T/C [1]: 85.6%
viability, T/C [2]: 77.7%
viability, T/C (second compound 0.0316 µM, first compound 0.316 µM): 63.8%
viability, T/C (second compound 0.0316 µM, first compound 1 µM): 55.1%
viability, T/C (second compound 0.0316 µM, first compound 3.16 µM): 50.3%
viability, T/C (second compound 0.0316 µM, first compound 10 µM): 32.7%
viability, T/C [3]: 80.9%
viability, T/C [4]: 67.5%
viability, T/C (second compound 0.1 µM, first compound 0.316 µM): 64.2%
viability, T/C (second compound 0.1 µM, first compound 1 µM): 52.6%
viability, T/C (second compound 0.1 µM, first compound 3.16 µM): 42.8%
viability, T/C (second compound 0.1 µM, first compound 10 µM): 28.4%
viability, T/C [5]: 87.2%
viability, T/C [6]: 92.2%
viability, T/C (second compound 0.316 µM, first compound 0.316 µM): 64.7%
viability, T/C (second compound 0.316 µM, first compound 1 µM): 63.9%
viability, T/C (second compound 0.316 µM, first compound 3.16 µM): 43%
viability, T/C (second compound 0.316 µM, first compound 10 µM): 36.7%
viability, T/C [7]: 88.1%
viability, T/C [8]: 85%
viability, T/C (second compound 1 µM, first compound 0.316 µM): 68.8%
viability, T/C (second compound 1 µM, first compound 1 µM): 55.6%
viability, T/C (second compound 1 µM, first compound 3.16 µM): 42.6%
viability, T/C (second compound 1 µM, first compound 10 µM): 33.3%
viability, T/C [9]: 89%
viability, T/C [10]: 82.2%
viability, T/C (second compound 3.16 µM, first compound 0.316 µM): 68.7%
viability, T/C (second compound 3.16 µM, first compound 1 µM): 54.2%
viability, T/C (second compound 3.16 µM, first compound 3.16 µM): 44.8%
viability, T/C (second compound 3.16 µM, first compound 10 µM): 35%
viability, T/C [11]: 82.5%
viability, T/C [12]: 83.5%
viability, T/C (second compound 10 µM, first compound 0.316 µM): 66%
viability, T/C (second compound 10 µM, first compound 1 µM): 57.6%
viability, T/C (second compound 10 µM, first compound 3.16 µM): 45.1%
viability, T/C (second compound 10 µM, first compound 10 µM): 33.1%

CC[C@@]1(O)C(=O)OCc2c1cc1n(c2=O)Cc2cc3c(CN(C)C)c(O)ccc3nc2-1 + Cc1cccc(N(C)C(=O)C2C(O)CCN2c2nc(C)cc(C(F)(F)F)c2C#N)c1
pIC50 (second compound 0.0316 µM): < 7.00
pIC50 (second compound 0.1 µM): < 7.00
pIC50 (second compound 0.316 µM): < 7.00
pIC50 (second compound 1 µM): < 7.00
pIC50 (second compound 3.16 µM): < 7.00
pIC50 (second compound 10 µM): 7.01
viability, T/C (second compound 0.0316 µM, first compound 0.000316 µM): 98%
viability, T/C (second compound 0.0316 µM, first compound 0.001 µM): 105%
viability, T/C (second compound 0.0316 µM, first compound 0.00316 µM): 89.8%
viability, T/C (second compound 0.0316 µM, first compound 0.01 µM): 103%
viability, T/C [1]: 59.9%
viability, T/C [2]: 52.5%
viability, T/C (second compound 0.1 µM, first compound 0.000316 µM): 86%
viability, T/C (second compound 0.1 µM, first compound 0.001 µM): 92.9%
viability, T/C (second compound 0.1 µM, first compound 0.00316 µM): 110%
viability, T/C (second compound 0.1 µM, first compound 0.01 µM): 80.9%
viability, T/C [3]: 67.1%
viability, T/C [4]: 59.7%
viability, T/C (second compound 0.316 µM, first compound 0.000316 µM): 106%
viability, T/C (second compound 0.316 µM, first compound 0.001 µM): 102%
viability, T/C (second compound 0.316 µM, first compound 0.00316 µM): 93.1%
viability, T/C (second compound 0.316 µM, first compound 0.01 µM): 83.9%
viability, T/C [5]: 70.7%
viability, T/C [6]: 58.5%
viability, T/C (second compound 1 µM, first compound 0.000316 µM): 78.1%
viability, T/C (second compound 1 µM, first compound 0.001 µM): 113%
viability, T/C (second compound 1 µM, first compound 0.00316 µM): 89.3%
viability, T/C (second compound 1 µM, first compound 0.01 µM): 90.3%
viability, T/C [7]: 74%
viability, T/C [8]: 52.8%
viability, T/C (second compound 3.16 µM, first compound 0.000316 µM): 101%
viability, T/C (second compound 3.16 µM, first compound 0.001 µM): 96.1%
viability, T/C (second compound 3.16 µM, first compound 0.00316 µM): 108%
viability, T/C (second compound 3.16 µM, first compound 0.01 µM): 105%
viability, T/C [9]: 70%
viability, T/C [10]: 52.3%
viability, T/C (second compound 10 µM, first compound 0.000316 µM): 84.6%
viability, T/C (second compound 10 µM, first compound 0.001 µM): 83.9%
viability, T/C (second compound 10 µM, first compound 0.00316 µM): 74.6%
viability, T/C (second compound 10 µM, first compound 0.01 µM): 87.8%
viability, T/C [11]: 66.6%
viability, T/C [12]: 49.6%
